In patent publication US20040156869A1, “2-substituted quinazolin-4-ylamine analogues” (Neurogen Corporation, priority 2002, published 2004):
Where two headings read alike, the source gives them in different places.

Target: human capsaicin receptor (VR1) (Homo sapiens, UniProt Q8NER1)
Assay: Capsaicin receptor binding assay ([3H]RTX competition, VR1-transfected HEK293 membranes)

Chain of human capsaicin receptor (VR1) (Q8NER1 whole entry): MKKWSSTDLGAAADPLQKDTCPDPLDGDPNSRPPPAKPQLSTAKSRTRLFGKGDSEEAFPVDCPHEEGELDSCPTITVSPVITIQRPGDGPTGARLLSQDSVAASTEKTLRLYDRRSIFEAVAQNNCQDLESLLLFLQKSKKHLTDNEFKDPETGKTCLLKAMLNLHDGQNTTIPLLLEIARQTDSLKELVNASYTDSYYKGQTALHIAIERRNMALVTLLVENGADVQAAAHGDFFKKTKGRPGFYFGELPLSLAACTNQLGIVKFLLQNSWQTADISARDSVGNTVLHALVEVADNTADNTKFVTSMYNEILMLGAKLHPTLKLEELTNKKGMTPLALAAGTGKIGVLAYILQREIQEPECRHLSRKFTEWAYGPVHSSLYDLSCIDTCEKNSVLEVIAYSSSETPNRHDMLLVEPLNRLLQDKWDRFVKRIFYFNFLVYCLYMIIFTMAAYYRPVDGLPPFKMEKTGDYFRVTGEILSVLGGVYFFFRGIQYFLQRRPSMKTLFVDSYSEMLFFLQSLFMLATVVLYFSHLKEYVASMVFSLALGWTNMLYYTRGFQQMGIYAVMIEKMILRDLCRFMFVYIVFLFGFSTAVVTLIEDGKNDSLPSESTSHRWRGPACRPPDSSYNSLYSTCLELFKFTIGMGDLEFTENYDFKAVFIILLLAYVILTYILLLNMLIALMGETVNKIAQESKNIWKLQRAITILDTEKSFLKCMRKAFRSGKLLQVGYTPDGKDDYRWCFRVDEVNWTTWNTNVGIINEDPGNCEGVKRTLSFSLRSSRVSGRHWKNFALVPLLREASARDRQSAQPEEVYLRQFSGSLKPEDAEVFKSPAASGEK

Compound	Ki [µM]	Ki (Table III, * = Ki 1 micromolar or less) [µM]
COc1ccc(Nc2nc(COCC(C)C)nc3nc(-c4ncccc4C(F)(F)F)ccc23)cc1C(F)(F)F [Compound 256, [2-Isobutoxymethyl-7-(3-trifluoromethyl-pyridin-2-yl)-pyrido[2,3-d]pyrimidin-4-yl]-(4-methoxy-3-trifluoromethyl-phenyl)-amine]	< 1	–
CCOC(=O)c1nc(Nc2ccc(C(C)(C)C)cc2)c2ccc(-c3ncccc3C)nc2n1 [Compound 185, 4-(4-tert-Butyl-phenylamino)-7-(3-methyl-pyridin-2-yl)-pyrido[2,3-d]pyrimidine-2-carboxylic acid ethyl ester]	< 1	–
COCc1nc(Nc2ccc(C(F)(F)F)cc2)c2ccc(-c3ncccc3Cl)cc2n1 [Compound 70, [7-(3-Chloro-pyridin-2-yl)-2-methoxymethyl-quinazolin-4-yl]-(4-trifluoromethyl-phenyl)-amine]	< 1	–
CC(=O)c1ccc(Nc2nc(COCC(C)C)nc3nc(-c4ncccc4Cl)ccc23)cc1 [Compound 262, 1-{4-[7-(3-Chloro-pyridin-2-yl)-2-isobutoxymethyl-pyrido(2,3-d]pyrimidin-4-ylamino]-phenyl}-ethanone]	< 1	–
Cc1ccc(Nc2nc(COCC(C)C)nc3nc(-c4ncccc4C(F)(F)F)ccc23)cc1C(F)(F)F [Compound 276, [2-Isobutoxymethyl-7-(3-trifluoromethyl-pyridin-2-yl)-pyrido[2,3-d]pyrimidin-4-yl]-(4-methyl-3-trifluoromethyl-phenyl)-amine]	< 1	–
COCCc1nc(Nc2ccc(C(C)(C)C)cc2)c2ccc(-c3ncccc3C(F)(F)F)cc2n1 [Compound 47, (4-tert-Butyl-phenyl)-[2-(2-methoxy-ethyl)-7-(3-trifluoromethyl-pyridin-2-yl)-quinazolin-4-yl]-amine]	< 1	–
FC(F)(F)c1ccc(Nc2nc(COCc3ccncc3)nc3cc(-c4ncccc4C(F)(F)F)ccc23)cn1 [Compound 46, [2-(Pyridin-4-ylmethoxymethyl)-7-(3-trifluoromethyl-pyridin-2-yl)-quinazolin-4-yl]-(6-trifluoromethyl-pyridin-3-yl)-amine]	< 1	–
CC(C)COCc1nc(Nc2ccc(C(C)C(F)(F)F)cc2)c2ccc(-c3ncccc3C(F)(F)F)nc2n1 (stereo not shown) [Compound 232, [2-Isobutoxymethyl-7-(3-trifluoromethyl-pyridin-2-yl)-pyrido[2,3-d]pyrimidin-4-yl]-[4-(2,2,2-trifluoro-1-methyl-ethyl)-phenyl]-amine]	< 1	–
COCc1nc(Nc2ccc(C(C)(C)C)nc2)c2ccc(-c3ncccc3C(F)(F)F)cc2n1 [Compound 74, (6-tert-Butyl-pyridin-3-yl)-[2-methoxymethyl-7-(3-trifluoromethyl-pyridin-2-yl)-quinazolin-4-yl]-amine]	< 1	–
CCOC(=O)COCc1nc(Nc2ccc(C(F)(F)F)cc2)c2ccc(-c3ncccc3C(F)(F)F)cc2n1 [Compound 169, [4-(4-Trifluoromethyl-phenylamino)-7-(3-trifluoromethyl-pyridin-2-yl)-quinazolin-2-ylmethoxy]-acetic acid ethyl ester]	< 1	–
Cc1cccnc1-c1ccc2c(Nc3ccc(OC(F)(F)F)cc3)nc(COCC(C)C)nc2n1 [Compound 190, [2-Isobutoxymethyl-7-(3-methyl-pyridin-2-yl)-pyrido[2,3-d]pyrimidin-4-yl]-(4-trifluoromethoxy-phenyl)-amine]	< 1	–
CC(C)COCc1nc(Nc2ccc(C(C)(C)C)nc2)c2ccc(-c3ncccc3Cl)nc2n1 [Compound 194, (6-tert-Butyl-pyridin-3-yl)-[7-(3-chloro-pyridin-2-yl)-2-isobutoxymethyl-pyrido[2,3-d]pyrimidin-4-yl]-amine]	< 1	–
OCc1nc(Nc2ccc(C(F)(F)F)cc2)c2ncc(-c3ncccc3Cl)cc2n1 [Compound 122, [7-(3-Chloro-pyridin-2-yl)-4-(4-trifluoromethyl-phenylamino)-pyrido[3,2-d]pyrimidin-2-yl]-methanol]	< 1	–
O=C(O)c1nc(Nc2ccc(C(F)(F)F)cc2)c2ccc(-c3ncccc3C(F)(F)F)cc2n1 [Compound 100, 4-(4-Trifluoromethyl-phenylamino)-7-(3-trifluoromethyl-pyridin-2-yl)-quinazoline-2-carboxylic acid]	< 1	–

Further lines, results first:

Ki [µM]	Ki (Table III, * = Ki 1 micromolar or less) [µM]	Compound
< 1	–	CN(C)CCc1nc(Nc2ccc(C(F)(F)F)cc2)c2ccc(-c3ncccc3C(F)(F)F)cc2n1 [Compound 409, [2-Dimethylaminoethyl-7-(3-trifluoromethyl-pyridin-2-yl)-quinazolin-4-yl]-(4-trifluoromethyl-phenyl)-amine]
< 1	–	CCCS(=O)(=O)c1ccc(Nc2nc(CN3C[C@@H](C)O[C@@H](C)C3)nc3cc(-c4ncccc4C(F)(F)F)cnc23)cc1 [Compound 594, [2-(2,6-Dimethyl-morpholin-4-ylmethyl)-7-(3-trifluoromethyl-pyridin-2-yl)-pyrido[3,2-d]pyrimidin-4-yl]-[4-(propane-1-sulfonyl)-phenyl]-amine (cis)]
< 1	–	CN(C)CC(C)(C)CNC(=O)c1nc(Nc2ccc(C(F)(F)F)cc2)c2ccc(-c3ncccc3C(F)(F)F)nc2n1 [Compound 434, 4-(4-Trifluoromethyl-phenylamino)-7-(3-trifluoromethyl-pyridin-2-yl)-pyrido[2,3-d]pyrimidine-2-carboxylic acid (3-dimethylamino-2,2-dimethyl-propyl)-amide]
< 1	–	FC(F)(F)c1ccc(Nc2nc(CCN3CCSCC3)nc3cc(-c4ncccc4C(F)(F)F)ccc23)cc1 [Compound 403, [2-Thiomorpholin-4-ylethyl-7-(3-trifluoromethyl-pyridin-2-yl)-quinazolin-4-yl]-(4-trifluoromethyl-phenyl)-amine]
< 1	–	FC(F)(F)c1ccc(Nc2nc(-c3ccc(N4CCCC4)nc3)nc3cc(-c4ncccc4C(F)(F)F)ccc23)cc1 [Compound 543, [2-(6-Pyrrolidin-1-yl-pyridin-3-yl)-7-(3-trifluoromethyl-pyridin-2-yl)-quinazolin-4-yl]-(4-trifluoromethyl-phenyl)-amine]
< 1	–	COc1ccccc1-c1ccc2c(Nc3ccc(C(F)(F)F)cc3)nc(CN3C[C@@H](C)O[C@@H](C)C3)nc2c1 [Compound 638, [2-(2,6-Dimethyl-morpholin-4-ylmethyl)-7-(2-methoxy-phenyl)-quinazolin-4-yl]-(4-trifluoromethyl-phenyl)-amine (cis)]
–	< 1	CCOC(=O)C1CCN(CCc2nc(Nc3ccc(C(F)(F)F)cc3)c3ccc(-c4ncccc4C(F)(F)F)cc3n2)CC1 [Compound 736, 1-{2-[4-(4-Trifluoromethyl-phenylamino)-7-(3-trifluoromethyl-pyridin-2-yl)-quinazolin-2-yl]-ethyl}-piperidine-4-carboxylic acid ethyl ester]
< 1	–	CCCN(Cc1nc(Nc2ccc(C(F)(F)F)nc2)c2ccc(-c3ncccc3C(F)(F)F)cc2n1)CC1CC1 [Compound 375, [2-[(Cyclopropylmethyl-propyl-amino)-methyl]-7-(3-trifluoromethyl-pyridin-2-yl)-quinazolin-4-yl]-(6-trifluoromethyl-pyridin-3-yl)-amine]
< 1	–	FC(F)(F)c1ccc(Nc2nc(Cn3ccnc3)nc3cc(-c4ncccc4Cl)cnc23)cc1 [Compound 700, [7-(3-Chloro-pyridin-2-yl)-2-imidazol-1-ylmethyl-pyrido[3,2-d]pyrimidin-4-yl]-(4-trifluoromethyl-phenyl)-amine]
< 1	–	C[C@@H]1CN(Cc2nc(Nc3ccc(C(C)(C)C)cc3)c3ccc(-c4ccncc4)cc3n2)C[C@H](C)O1 [Compound 675, (4-tert-Butyl-phenyl)-[2-(2,6-dimethyl-morpholin-4-ylmethyl)-7-pyridin-4-yl-quinazolin-4-yl]-amine (cis)]
< 1	–	Cc1cccnc1-c1ccc2c(Nc3ccc(C(F)(F)F)cc3)nc(CN3C[C@@H](C)O[C@@H](C)C3)nc2c1 [Compound 618, [2-(2,6-Dimethyl-morpholin-4-ylmethyl)-7-(3-methyl-pyridin-2-yl)-quinazolin-4-yl]-(4-trifluoromethyl-phenyl)-amine (cis)]
< 1	–	COc1ccc(-c2nc(Nc3ccc(C(F)(F)F)cc3)c3ccc(-c4ncccc4C(F)(F)F)cc3n2)cn1 [Compound 509, [2-(6-Methoxy-pyridin-3-yl)-7-(3-trifluoromethyl-pyridin-2-yl)-quinazolin-4-yl]-(4-trifluoromethyl-phenyl)-amine]
< 1	–	C[C@@H]1CN(Cc2nc(Nc3ccc(C4CC4)cc3)c3ccc(-c4ncccc4C(F)(F)F)cc3n2)C[C@H](C)O1 [Compound 710, (4-Cyclopropyl-phenyl)-[2-(2,6-dimethyl-morpholin-4-ylmethyl)-7-(3-trifluoromethyl-pyridin-2-yl)-quinazolin-4-yl]-amine (cis)]
< 1	–	COCCN1CCN(Cc2nc(Nc3ccc(C(F)(F)F)cc3)c3ccc(-c4ncccc4C(F)(F)F)cc3n2)CC1 [Compound 514, [2-[4-(2-Methoxy-ethyl)-piperazin-1-ylmethyl]-7-(3-trifluoromethyl-pyridin-2-yl)-quinazolin-4-yl]-(4-trifluoromethyl-phenyl)-amine]
< 1	–	CN(CCc1nc(Nc2ccc(C(F)(F)F)cc2)c2ccc(-c3ncccc3C(F)(F)F)cc2n1)Cc1ccccc1 [Compound 392, [2-[2-(Benzyl-methyl-amino)-ethyl]-7-(3-trifluoromethyl-pyridin-2-yl)-quinazolin-4-yl]-(4-trifluoromethyl-phenyl)-amine]
< 1	–	CCCCCN(CCCCC)Cc1nc(Nc2ccc(C(F)(F)F)cc2)c2ccc(-c3ncccc3C(F)(F)F)cc2n1 [Compound 345, [2-Dipentylaminomethyl-7-(3-trifluoromethyl-pyridin-2-yl)-quinazolin-4-yl]-(4-trifluoromethyl-phenyl)-amine]
< 1	–	CN(CCc1nc(Nc2ccc(C(F)(F)F)cc2)c2ccc(-c3ncccc3C(F)(F)F)cc2n1)C1CCCCC1 [Compound 424, [2-[(Cyclohexyl-methyl-amino)-ethyl]-7-(3-trifluoromethyl-pyridin-2-yl)-quinazolin-4-yl]-(4-trifluoromethyl-phenyl)-amine]
